In ChEMBL document CHEMBL3217459, “3-Diarylethyne quinazolinones: a new class of senescence inducers” (Medchemcomm, 2013):
The source made the active and inactive calls. No cut-off for these calls is given here.

Experiments:
MCF7 [1] = assay: Cell cycle arrest in human MCF7 cells assessed as accumulation at G1 phase at 4 uM after 24 hrs using propidium iodide staining by FACS analysis (reference value: 70%); assay type: functional
MCF7 [2] = assay: Cytotoxicity against human MCF7 cells assessed as cell viability at 2 uM after 48 hrs by MTT assay; assay type: functional
MCF7 [3] = assay: Cytotoxicity against human MCF7 cells assessed as cell viability at 4 uM after 48 hrs by MTT assay; assay type: functional
MCF7 [4] = assay: Cell cycle arrest in human MCF7 cells assessed as accumulation at S phase at 4 uM after 24 hrs using propidium iodide staining by FACS analysis (reference value: 11%); assay type: functional
MCF7 [5] = assay: Cell cycle arrest in human MCF7 cells assessed as accumulation at G2/M phase at 4 uM after 24 hrs using propidium iodide staining by FACS analysis (reference value: 19%); assay type: functional
MCF7 (Homo sapiens) = assay: Induction of senescence in human MCF7 cells assessed as increase in p16 expression at 4 uM after 24 hrs by Western blot analysis
A549 = assay: Cytotoxicity against human A549 cells assessed as cell viability after 48 hrs by MTT assay; assay type: functional, cell-based; conditions: A549, 48 h
MCF7 [6] = assay: Induction of DNA damage in human MCF7 cells assessed as increase in POT1 level measured at 4 uM after 24 hrs by Western blot analysis; assay type: functional, cell-based
MCF7 [7] = assay: Cytotoxicity against human MCF7 cells assessed as cell viability after 48 hrs by MTT assay; assay type: functional, cell-based; conditions: MCF7, 48 h
MDA-MB-231 = assay: Cytotoxicity against human MDA-MB-231 cells assessed as cell viability after 48 hrs by MTT assay; assay type: functional, cell-based; conditions: MDA-MB-231, 48 h
MCF7 [8] = assay: Induction of senescence in human MCF7 cells assessed as decrease in SKP2 expression at 4 uM after 24 hrs by Western blot analysis; assay type: functional, cell-based
MCF7 [9] = assay: Induction of senescence in human MCF7 cells assessed as increase in p21 expression at 4 uM after 24 hrs by Western blot analysis; assay type: functional, cell-based
[10] = target: Telomerase reverse transcriptase (Homo sapiens) (UniProt O14746); assay: Inhibition of telomerase activity in human MCF7 cells assessed as un-repairable DNA damage at 4 uM after 24 hrs; assay type: cell-based
MCF7 [11] = assay: Induction of senescence in human MCF7 cells assessed as increase in p16 expression at 4 uM after 24 hrs by Western blot analysis; assay type: functional, cell-based
HCT-116 [12] = assay: Induction of senescence in human HCT116 cells assessed as increase in p16 expression at 4 uM after 24 hrs by Western blot analysis; assay type: functional, cell-based
[13] = Cytotoxicity against human MCF10A cells assessed as cell viability after 48 hrs by MTT assay; assay type: cell-based; conditions: MCF-10A
[14] = Cytotoxicity against human MIAPaCa2 cells assessed as cell viability after 48 hrs by MTT assay; assay type: functional, cell-based; conditions: MIA PaCa-2, 48 h
MCF7 [15] = assay: Induction of DNA damage in human MCF7 cells assessed as decrease in TRF2 level measured at 4 uM after 24 hrs by Western blot analysis; assay type: functional, cell-based
COLO 205 = assay: Cytotoxicity against human COLO205 cells assessed as cell viability after 48 hrs by MTT assay; assay type: functional, cell-based; conditions: COLO 205, 48 h
MCF7 [16] = assay: Induction of DNA damage in human MCF7 cells assessed as increase in TRF1 level measured at 4 uM after 24 hrs by Western blot analysis; assay type: functional, cell-based
MCF7 [17] = assay: Induction of DNA damage in human MCF7 cells assessed as increase in gamma H2AX level measured at 4 uM after 24 hrs by Western blot analysis; assay type: functional, cell-based
SW116 = assay: Induction of senescence in human SW116 cells assessed as increase in p21 expression at 4 uM after 24 hrs by Western blot analysis; assay type: functional, cell-based
MCF7 [18] = assay: Induction of senescence in human MCF7 cells assessed as increase in p53 expression at 4 uM after 24 hrs by Western blot analysis; assay type: functional, cell-based
HCT-116 [19] = assay: Induction of senescence in human HCT116 cells assessed as increase in p21 expression at 4 uM after 24 hrs by Western blot analysis; assay type: functional, cell-based

Telomerase reverse transcriptase (Homo sapiens), sequence (O14746 whole entry): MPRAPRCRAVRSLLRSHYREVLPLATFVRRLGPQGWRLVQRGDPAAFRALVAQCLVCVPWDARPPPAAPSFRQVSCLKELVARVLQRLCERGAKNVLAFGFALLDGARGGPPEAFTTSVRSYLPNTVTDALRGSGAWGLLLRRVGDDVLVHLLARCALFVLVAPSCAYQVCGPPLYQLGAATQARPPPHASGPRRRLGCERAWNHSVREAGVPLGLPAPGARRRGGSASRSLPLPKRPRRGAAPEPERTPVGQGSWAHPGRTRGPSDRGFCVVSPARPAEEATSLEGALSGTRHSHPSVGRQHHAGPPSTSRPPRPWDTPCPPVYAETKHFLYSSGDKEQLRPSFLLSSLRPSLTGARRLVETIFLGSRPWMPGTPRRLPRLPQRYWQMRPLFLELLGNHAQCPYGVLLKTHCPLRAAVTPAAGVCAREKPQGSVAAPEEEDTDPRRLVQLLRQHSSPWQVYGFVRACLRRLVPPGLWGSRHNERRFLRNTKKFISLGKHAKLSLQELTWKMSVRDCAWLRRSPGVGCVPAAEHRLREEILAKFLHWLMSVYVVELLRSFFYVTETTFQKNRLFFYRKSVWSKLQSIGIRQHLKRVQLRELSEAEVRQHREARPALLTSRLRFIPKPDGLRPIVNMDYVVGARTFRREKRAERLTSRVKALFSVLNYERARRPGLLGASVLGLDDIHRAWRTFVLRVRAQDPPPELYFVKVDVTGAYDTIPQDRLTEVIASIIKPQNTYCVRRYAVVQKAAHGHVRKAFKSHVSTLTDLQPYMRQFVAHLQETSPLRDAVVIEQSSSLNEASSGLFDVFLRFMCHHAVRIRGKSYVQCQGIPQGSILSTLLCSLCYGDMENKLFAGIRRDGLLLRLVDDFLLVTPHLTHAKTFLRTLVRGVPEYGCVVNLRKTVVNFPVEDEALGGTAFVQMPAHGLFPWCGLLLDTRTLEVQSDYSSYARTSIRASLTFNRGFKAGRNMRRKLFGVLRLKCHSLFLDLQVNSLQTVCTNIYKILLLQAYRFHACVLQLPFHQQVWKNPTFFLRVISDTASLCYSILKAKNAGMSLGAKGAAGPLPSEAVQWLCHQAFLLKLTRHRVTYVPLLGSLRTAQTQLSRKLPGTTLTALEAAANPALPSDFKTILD

Row | Compound | Activity (MCF7 [1]) | OD (MCF7 [2]) | OD (MCF7 [3]) | Activity (MCF7 [4]) | Activity (MCF7 [5]) | other results
1 | COc1ccc2cc(C#Cc3ccc(-n4c(/C=C/c5c(Cl)cccc5Cl)nc5ccccc5c4=O)c(C)c3)ccc2c1 | 68% | 0.77 | 0.63 | 8% | 24% | –
2 | COc1ccc(/C=C/c2nc3ccccc3c(=O)n2-c2ccc(C#Cc3ccc(C(C)(C)C)cc3)cc2C)cc1OC | 91% | 0.41 | 0.27 | 3% | 6% | Activity (MCF7 (Homo sapiens)): Active; IC50 (A549): 6.15 µM; Activity (MCF7 [6]): Active; IC50 (MCF7 [7]): 2.72 µM; IC50 (MDA-MB-231): 5.84 µM; inhibition (MCF7 [8]): Active; Activity (MCF7 [9]): Active; inhibition [10]: Active; Activity (MCF7 [11]): Active; Activity (HCT-116 [12]): Active; IC50 [13]: 13 µM; IC50 [14]: 5.89 µM; inhibition (MCF7 [15]): Active; IC50 (COLO 205): 5.68 µM; Activity (MCF7 [16]): Active; Activity (MCF7 [17]): Active; Activity (SW116): Active; Activity (MCF7 [18]): Active; Activity (HCT-116 [19]): Active
3 | Cc1cc(C#Cc2ccc(C(C)(C)C)cc2)ccc1-n1c(/C=C/c2ccc3c(c2)OCO3)nc2ccccc2c1=O | 67% | 0.67 | 0.52 | 10% | 23% | –
4 | COc1ccc2cc(C#Cc3ccc(-n4c(/C=C/c5ccc(F)cc5)nc5ccccc5c4=O)c(C)c3)ccc2c1 | 74% | 0.67 | 0.57 | 8% | 18% | –
5 | Cc1cc(C#Cc2ccccc2)ccc1-n1c(/C=C/c2cc(O)cc(O)c2)nc2ccccc2c1=O | 83% | 0.92 | 0.73 | 7% | 10% | –
6 | Cc1cc(C#Cc2ccccc2)ccc1-n1c(/C=C/c2ccc3ccccc3c2)nc2ccccc2c1=O | 68% | 0.97 | 0.43 | 8% | 24% | –
7 | Cc1cc(C#Cc2ccccc2)ccc1-n1c(/C=C/c2ccc(F)cc2)nc2ccccc2c1=O | 73% | 0.75 | 0.61 | 7% | 20% | –
8 | Cc1cc(C#Cc2ccc(C(C)(C)C)cc2)ccc1-n1c(/C=C/c2ccc(O)cc2)nc2ccccc2c1=O | 74% | 0.71 | 0.52 | 7% | 19% | –
9 | COc1cc(/C=C/c2nc3ccccc3c(=O)n2-c2ccc(C#Cc3ccc(C(C)(C)C)cc3)cc2C)cc(OC)c1OC | 14% | 0.74 | 0.55 | 8% | 78% | –
10 | COc1ccc2cc(C#Cc3ccc(-n4c(/C=C/c5ccc([N+](=O)[O-])o5)nc5ccccc5c4=O)c(C)c3)ccc2c1 | 49% | 0.66 | 0.58 | 12% | 39% | –
11 | Cc1cc(C#Cc2ccccc2)ccc1-n1c(/C=C/c2ccc(O)cc2)nc2ccccc2c1=O | 75% | 0.87 | 0.58 | 7% | 18% | –
12 | COc1ccc2cc(C#Cc3ccc(-n4c(/C=C/c5ccc(OC)c(OC)c5)nc5ccccc5c4=O)c(C)c3)ccc2c1 | 70% | 0.7 | 0.6 | 7% | 23% | –
13 | COc1cc(/C=C/c2nc3ccccc3c(=O)n2-c2ccc(C#Cc3ccccc3)cc2C)cc(OC)c1 | 73% | 0.93 | 0.61 | 8% | 19% | –
14 | Cc1cc(C#Cc2ccccc2)ccc1-n1c(/C=C/c2ccc(O)c([N+](=O)[O-])c2)nc2ccccc2c1=O | 73% | 0.9 | 0.51 | 7% | 20% | –
15 | Cc1cc(C#Cc2ccccc2)ccc1-n1c(/C=C/c2ccc([N+](=O)[O-])o2)nc2ccccc2c1=O | – | 0.88 | 0.37 | – | – | –
16 | Cc1cc(C#Cc2ccc(C(C)(C)C)cc2)ccc1-n1c(/C=C/c2ccc(Cl)cc2)nc2ccccc2c1=O | – | 0.71 | 0.59 | – | – | –
17 | Cc1cc(C#Cc2ccc(C(C)(C)C)cc2)ccc1-n1c(/C=C/c2ccc3ccccc3c2)nc2ccccc2c1=O | 72% | 0.92 | 0.61 | 8% | 20% | –
18 | COc1ccc2cc(C#Cc3ccc(-n4c(/C=C/c5ccnc6ccccc56)nc5ccccc5c4=O)c(C)c3)ccc2c1 | 74% | 0.76 | 0.5 | 7% | 19% | –
19 | COc1ccc(/C=C/c2nc3ccccc3c(=O)n2-c2ccc(C#Cc3ccccc3)cc2C)cc1 | 78% | 0.84 | 0.73 | 7% | 15% | –
20 | Cc1ccccc1/C=C/c1nc2ccccc2c(=O)n1-c1ccc(C#Cc2ccccc2)cc1C | 88% | 0.78 | 0.51 | 6% | 6% | –
21 | COc1cc(/C=C/c2nc3ccccc3c(=O)n2-c2ccc(C#Cc3ccccc3)cc2C)cc(OC)c1OC | 90% | 0.47 | 0.27 | 5% | 5% | Activity (MCF7 (Homo sapiens)): Active; IC50 (A549): 6.54 µM; Activity (MCF7 [6]): Active; IC50 (MCF7 [7]): 2.46 µM; IC50 (MDA-MB-231): 5.56 µM; inhibition (MCF7 [8]): Active; Activity (MCF7 [9]): Active; inhibition [10]: Active; Activity (MCF7 [11]): Active; Activity (HCT-116 [12]): Active; IC50 [13]: 8 µM; IC50 [14]: 6.01 µM; inhibition (MCF7 [15]): Active; IC50 (COLO 205): 6.24 µM; Activity (MCF7 [16]): Active; Activity (MCF7 [17]): Active; Activity (SW116): Active; Activity (MCF7 [18]): Active; Activity (HCT-116 [19]): Active
22 | Cc1cc(C#Cc2ccc(C(C)(C)C)cc2)ccc1-n1c(/C=C/c2ccc([N+](=O)[O-])o2)nc2ccccc2c1=O | 77% | 0.7 | 0.4 | 6% | 17% | –
23 | COc1ccc2cc(C#Cc3ccc(-n4c(/C=C/c5ccc6ccccc6c5)nc5ccccc5c4=O)c(C)c3)ccc2c1 | 69% | 0.81 | 0.46 | 9% | 22% | –
24 | Cc1cc(C#Cc2ccc(C(C)(C)C)cc2)ccc1-n1c(/C=C/c2ccc([N+](=O)[O-])s2)nc2ccccc2c1=O | 68% | 0.54 | 0.25 | 8% | 24% | –
25 | COc1ccc2cc(C#Cc3ccc(-n4c(/C=C/c5cc(OC)c(OC)c(OC)c5)nc5ccccc5c4=O)c(C)c3)ccc2c1 | 72% | 0.57 | 0.58 | 7% | 21% | –
26 | Cc1cc(C#Cc2ccc(C(C)(C)C)cc2)ccc1-n1c(/C=C/c2cc(O)cc(O)c2)nc2ccccc2c1=O | 74% | 0.6 | 0.43 | 8% | 18% | –
27 | Cc1cc(C#Cc2ccccc2)ccc1-n1c(/C=C/c2ccc(Cl)cc2)nc2ccccc2c1=O | 75% | 0.74 | 0.48 | 7% | 18% | –
